Key:
[1] = molecular target: T1, G810S mutant RET kinase (N-Terminal GST-tagged recombinant human G810S, aa-658-end) (Homo sapiens, UniProt P07949, G810S); assay: RET enzyme assay (HTRF KinEASE TK), G810S; format: biochemical; details: 1 mM ATP, 60 min incubation at 22° C.
T1 construct: recombinant human G810S (aa-658-end); GST (N); made in house; host or cells: insect cells
T1 sequence (P07949 658-1114 G810S limits assumed): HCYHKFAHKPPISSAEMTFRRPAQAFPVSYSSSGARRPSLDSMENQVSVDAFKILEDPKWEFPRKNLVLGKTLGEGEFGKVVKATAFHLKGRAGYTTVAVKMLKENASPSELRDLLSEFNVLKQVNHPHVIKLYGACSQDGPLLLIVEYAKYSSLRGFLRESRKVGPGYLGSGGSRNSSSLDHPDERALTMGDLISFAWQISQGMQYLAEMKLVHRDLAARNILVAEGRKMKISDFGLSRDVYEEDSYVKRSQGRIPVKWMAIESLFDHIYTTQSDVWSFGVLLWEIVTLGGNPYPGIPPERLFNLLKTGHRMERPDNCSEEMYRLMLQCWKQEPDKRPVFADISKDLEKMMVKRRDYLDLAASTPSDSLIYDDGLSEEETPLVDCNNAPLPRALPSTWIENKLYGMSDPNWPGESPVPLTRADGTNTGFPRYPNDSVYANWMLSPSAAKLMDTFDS
Description: Assay A: RET Enzyme Assay
Compounds of formulas I, II, or III are screened for their ability to inhibit wildtype, V804M, and G810S mutant RET kinase using CisBio's HTRF® KinEASE™TK assay technology. N-terminal GST tagged recombinant human RET cytoplasmic domain (aa 658-end) from Eurofins ([…]; Catalog No. 14-570M) or N-terminal GST tagged recombinant human V804M mutant RET cytoplasmic domain (aa 658-end) from Millipore (1.25 nM enzyme; Catalog No. 14-760) or N-Terminal GST-tagged recombinant human G810S (aa-658-end) (1.25 nM Enzyme; produced in insect cells) is incubated with 62.5 nM TK-substrate biotin (CisBio, part of Catalog No. 62TK0PEC) and 1 mM ATP along with test compound (0.4% final DMSO in the assay) in a 1× Cisbio enzymatic buffer consisting of […], 5 mM MgCl2, 0.04% BSA and 0.05% Tween20 in a volume of 10 μL. Compounds are typically prepared in a threefold serial dilution in DMSO and added to the assay to give the appropriate final concentration. After a 40-60 min (40 min for V804M, 60 min for WT and G810S) incubation at 22° C., the reaction is quenched by adding quench solution (10 μL) containing 7.8 nM Streptavidine-XL665 and 0.5×TK-ab-Cryptate in HTRF detection buffer (all from CisBio, part of Cat. No. 62TK0PEC). After a 60-80 min incubation (60 minutes for WT, 80 minutes for V804M and G810S) at 22° C., the extent of reaction is determined using a PHERastar plate reader via HTRF detection at excitation/emission 337/665 nm. Percent of inhibition is calculated with 0% inhibition referring to control conditions containing no compound (0.4% DMSO only) and 100% inhibition represented by conditions containing no enzyme. The % inhibition values are fit to a 4 parameter logistic curve, and the determined IC50 value is defined as the estimated concentration of inhibitor at the inflexion point of the fitted curve.

[2] = molecular target: T2, KIF5B-RET WT in HEK293 cells (Homo sapiens, UniProt P07949); assay: RET cell assay (In-Cell Western, phospho-RET Y1062), wildtype; format: cell-based; details: HEK293, doxycycline-induced KIF5B-RET WT, 1 hr compound treatment; read-out: EC50, inhibition of intracellular autophosphorylation of RET at tyrosine 1062, wildtype cells
T2 construct: expressed in transfected cells; host or cells: HEK293; the other entry of the earlier key: KIF5B (P33176, Kinesin-1 heavy chain)
T2 sequence (P07949 713-1063 limits assumed): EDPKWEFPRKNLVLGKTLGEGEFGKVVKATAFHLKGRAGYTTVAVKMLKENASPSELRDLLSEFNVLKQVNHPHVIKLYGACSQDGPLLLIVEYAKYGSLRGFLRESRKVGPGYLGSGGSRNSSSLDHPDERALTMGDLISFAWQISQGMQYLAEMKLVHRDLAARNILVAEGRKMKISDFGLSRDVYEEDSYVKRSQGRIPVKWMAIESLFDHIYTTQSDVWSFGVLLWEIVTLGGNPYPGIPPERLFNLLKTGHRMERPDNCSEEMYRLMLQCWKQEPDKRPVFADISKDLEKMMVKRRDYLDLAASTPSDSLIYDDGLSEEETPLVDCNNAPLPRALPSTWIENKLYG
Description: Compounds of formulas (I), (II), and (III) are screened for their ability to inhibit the intracellular autophosphorylation of RET at tyrosine 1062 as detected by In-Cell Western. HEK293 cells containing a doxycycline-inducible plasmid for inducible expression of KIF5B-RET WT and RET mutant forms V804M and G810S are seeded at 25,000 cells/well into black poly-D-lysine pre-coated 384-well plates (Corning, Catalog No. 356697). Expression of KIF5B-RET is induced with doxycycline at 1 μg/mL and cells are incubated at 37° C. overnight. Compounds are prepared in a threefold serial dilution in DMSO before further diluting 1:100 in media prior to the addition to the cells (0.1% final DMSO concentration). Compound treatment is performed for 1 hr at 37° C. followed by fixation of cells with 4% formaldehyde for 20 min at RT and cell permeabilisation with ice-cold MeOH for 10 min at RT. Cells are incubated with Intercept® blocking buffer (Li—COR, Catalogue No. 927-70010) for 1 hr at RT. Incubation with primary antibodies against human phospho-RET (Y1062) (R&D, Catalogue No. AF5009, 1/250 dilution) and human glyceraldehyde-3-phosphate dehydrogenase (clone 6C5, Merck, Catalog No. MAB374, 1/1000 dilution) are performed overnight at 4° C. Incubation with secondary antibodies IRDye® 800CW goat anti-rabbit IgG (Li—COR, Catalogue No. 926-32211, 1/1000 dilution) and IRDye® 680CW goat anti-mouse IgG (Li—COR, Catalogue No. 926-68070, 1/1000 dilution) are performed for 1 hr at RT. All antibody dilutions are done in Intercept® blocking buffer containing 0.05% Tween20. After washing cells with PBS-T (Cell Signaling technology, Catalogue No. 9809), the images are acquired on a Li—COR Odyssey LCx at 700 and 800 nm. Percent of DMSO control is calculated with 100% signal referring to control conditions containing no compound (0.4% DMSO only) and 0% signal represented by conditions containing control compound. The % of DMSO control values are fit to a 4 parameter logistic curve, and the determined EC50 value is defined as the estimated concentration of inhibitor at the inflexion point of the fitted curve.

IC50 [1] [nM]	EC50 [2] [nM]	Structure (SMILES)
< 100	< 100	CCC(C)(C)c1cc(NC(=O)C(C)c2ccc(-c3nn(C(C)C)c(N)c3C(N)=O)cc2)no1 (single isomer, unassigned; isomer 2) [Example 52, 5-Amino-1-isopropyl-3-[4-(1-[[5-(2-methylbutan-2-yl)-1,2-oxazol-3-yl]carbamoyl]ethyl)phenyl]pyrazole-4-carboxamide, Isomer 2]
< 100	< 100	CCC(C)(C)c1cc(NC(=O)C(C)c2ccc(-c3nn(C(C)C)c(N)c3C(N)=O)nc2)no1 (single isomer, unassigned; isomer 2) [Example 66, 5-Amino-1-isopropyl-3-[5-(1-[[5-(2-methylbutan-2-yl)-1,2-oxazol-3-yl]carbamoyl]ethyl)pyridin-2-yl]pyrazole-4-carboxamide, Isomer 2]
< 100	< 100	CC(C(=O)Nc1cc(C2CC(C)(C)C2)no1)c1ccc(-c2nn(C(C)C)c(N)c2C(N)=O)cc1 (single isomer, unassigned; isomer 1) [Example 98, 5-Amino-3-[4-[2-[[3-(3,3-dimethylcyclobutyl)isoxazol-5-yl]amino]-1-methyl-2-oxo-ethyl]phenyl]-1-isopropyl-pyrazole-4-carboxamide, Isomer 1]
< 100	< 100	CC(C(=O)Nc1cc(-c2ccc(Cl)cc2Cl)no1)c1ccc(-c2nn(C(C)C)c(N)c2C(N)=O)cc1 (single isomer, unassigned; isomer 1) [Example 45, 5-Amino-3-[4-(1-[[3-(2,4-dichlorophenyl)-1,2-oxazol-5-yl]carbamoyl]ethyl)phenyl]-1-isopropylpyrazole-4-carboxamide, Isomer 1]

From patent US11613533B2, “Compounds useful for inhibiting RET kinase” (Eli Lilly and Company, priority 2020, dated 2023)
